Source: US12371454B2, “Cyclic peptide compound having Kras inhibitory action” (priority 2019, dated 2025)
Starred links: 1 amine or outer side, 2 acyl side, 3 side chain; linkers in the order of their positions; H or OH if unused. Positions of bridges follow the written chain, without caps; N, C: chain ends. Non-standard residues stand in square brackets, D forms with d. Residues, ends and D or L forms follow the SMILES beside them. *: point of attachment. hPhe(3-Cl-4-CF3) = N[C@@H](CCc1ccc(C(F)(F)F)c(Cl)c1)C(=O)O; 3Oxa8azabicyclo(3.2.1)octane = C1CC2COCC1N2*; NMeAbu(4,4,4-F3) = CN[C@@H](CC(F)(F)F)C(=O)O; NMePhe(4-Me) = CN[C@@H](Cc1ccc(C)cc1)C(=O)O; NMeNle(6-CHF2) = CN[C@@H](CCCCC(F)F)C(=O)O; NMedβ3hAla = C[C@H](CC(=O)[*:2])N(C)[*:1]; NMePhe(2-F) = CN[C@@H](Cc1ccccc1F)C(=O)O; hPhe(4-F) = N[C@@H](CCc1ccc(F)cc1)C(=O)O; Morpholine(3S-CO) = O=C(O)[C@@H]1COCCN1; Phe(3-I) = N[C@@H](Cc1cccc(I)c1)C(=O)O; Phe(2-Me) = Cc1ccccc1C[C@H](N)C(=O)O; NMeGly(cBu) = CN[C@H](C(=O)O)C1CCC1; NMeCha = CN[C@@H](CC1CCCCC1)C(=O)O; X2 = C=CC[C@](C)(N[*:1])C(=O)[*:2]; Ala(cPr) = N[C@@H](CC1CC1)C(=O)O; NMeChg = CN[C@H](C(=O)O)C1CCCCC1; NMeI = CC[C@H](C)[C@H](NC)C(=O)O; NMeD = CN[C@@H](CC(=O)O)C(=O)O; NMeL = CN[C@@H](CC(C)C)C(=O)O; NMehSer = CN[C@@H](CCO)C(=O)O; NMeV = CN[C@H](C(=O)O)C(C)C; d(β3hA) = C[C@@H](N)CC(=O)O; NMeS = CN[C@@H](CO)C(=O)O; Ac6c = NC1(C(=O)O)CCCCC1; Iva = CC[C@](C)(N)C(=O)O; NMeA = CN[C@@H](C)C(=O)O; NMeAib = CNC(C)(C)C(=O)O; Piperidide = C1CCN(*)CC1; Pyrrolidide = C1CCN(*)C1; Ac5c = NC1(C(=O)O)CCCC1; Aze = O=C(O)[C@@H]1CCN1; Cyclobutyl = C1CC(*)C1; Sar = CNCC(=O)O

Columns and labels:
[1] = target: T1, Kras and SOS1 (biotin-tagged human Kras loaded with GDP, His-tagged human SOS1) (Homo sapiens, UniProt P01116, G12D); assay: Protein-protein interaction inhibition between Kras and SOS1 (KrasGl2D-SOS PPI) using AlphaScreen; type: binding; settings: AlphaScreen; biotin-tagged human Kras loaded with GDP, His-tagged human SOS1; read-out: KRAS G12D-SOS PPI IC50
T1 construct: made in house; host or cells: E. coli (stated for Kras only)
T1 sequence (P01116 1-188 isoform P01116-2 G12D): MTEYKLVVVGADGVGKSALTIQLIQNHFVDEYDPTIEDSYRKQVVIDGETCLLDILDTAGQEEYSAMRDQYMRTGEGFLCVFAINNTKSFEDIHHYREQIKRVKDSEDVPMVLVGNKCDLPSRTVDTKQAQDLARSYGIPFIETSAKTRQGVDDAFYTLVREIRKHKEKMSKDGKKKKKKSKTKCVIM
Procedure, shortened: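 Read-out is acceptor-bead light at 520-620 nm, arising when 680 nm-irradiated nickel donor beads pass singlet oxygen to streptavidin acceptors. The bead pair links His-tagged SOS1 with biotin-tagged, GDP-bound Kras from E. coli.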

[2] = test system: Human pancreatic cancer cell line AsPC-1; assay: Measurement of AsPC-1 cell growth inhibition (AsPC-1 CGI); type: cell-based; settings: 96 h
Procedure, shortened: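 AsPC-1 cells in 15% FBS RPMI-1640 were exposed to test compound for 96 hours at 37° C, with CellTiter-Glo as endpoint.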

Compound | IC50 [1] | IC50 [2]
CC[C@H](C)[C@@H]1NC(=O)[C@H](CC(C)C)N(C)C(=O)C[C@@H](C(=O)N2CCCCC2)N(C)C(=O)[C@H](CC(C)C)NC(=O)C(C)(C)N(C)C(=O)[C@H](Cc2ccccc2C)NC(=O)[C@H](Cc2cccc(I)c2)NC(=O)CN(C)C(=O)[C@H](Cc2ccc(C)cc2)N(C)C(=O)CN(C)C(=O)CN(C)C1=O [Compound 596] ([NMeL]I[Sar][Sar][NMePhe(4-Me)][Sar][Phe(3-I)][Phe(2-Me)][NMeAib]L[NMeD]-Piperidide; lactam N-11) | 34 nM | > 500 nM
CC[C@H](C)[C@@H]1NC(=O)[C@H](CC(C)C)N(C)C(=O)C[C@@H](C(=O)N2CCCCC2)N(C)C(=O)[C@H](C(C)C)N(C)C(=O)C2(CCCCC2)NC(=O)[C@@H]2CCCN2C(=O)[C@H](CCc2ccc(C(F)(F)F)c(Cl)c2)NC(=O)CN(C)C(=O)[C@H](CC2CCCCC2)N(C)C(=O)CN(C)C(=O)CN(C)C1=O [Compound 600] ([NMeL]I[Sar][Sar][NMeCha][Sar][hPhe(3-Cl-4-CF3)]P[Ac6c][NMeV][NMeD]-Piperidide; lactam N-11) | 4.5 nM | 100 to 500 nM
CC[C@H](C)[C@@H]1NC(=O)[C@H](CC(C)C)N(C)C(=O)C[C@@H](C)N(C)C(=O)[C@H](C(C)C)N(C)C(=O)C2(CCCC2)NC(=O)[C@@H]2CCCN2C(=O)[C@H](CCc2ccc(C(F)(F)F)c(Cl)c2)NC(=O)CN(C)C(=O)[C@H](CC2CCCCC2)N(C)C(=O)CN(C)C(=O)CN(C)C1=O [Compound 608] (cyclo([Ac5c][NMeV][NMedβ3hAla][NMeL]I[Sar][Sar][NMeCha][Sar][hPhe(3-Cl-4-CF3)]P)) | 5.9 nM | 50 to 100 nM
CC[C@H](C)[C@@H]1NC(=O)[C@H](CC(C)C)N(C)C(=O)C[C@@H](C(=O)N(C)C)N(C)C(=O)[C@H]([C@@H](C)CC)N(C)C(=O)C2(CCCC2)NC(=O)[C@H](Cc2ccccc2F)N(C)C(=O)[C@H](CCc2ccc(C(F)(F)F)c(Cl)c2)NC(=O)CN(C)C(=O)[C@H](Cc2ccc(C)cc2)N(C)C(=O)[C@@H]2CCN2C(=O)[C@H](C)N(C)C1=O [Compound 616] ([NMeL]I[NMeA][Aze][NMePhe(4-Me)][Sar][hPhe(3-Cl-4-CF3)][NMePhe(2-F)][Ac5c][NMeI][NMeD]-NMe2; lactam N-11) | 3.9 nM | 50 to 100 nM
CC[C@H](C)[C@@H]1NC(=O)[C@H](C)N(C)C(=O)C[C@@H](C(=O)N2CCCCC2)N(C)C(=O)[C@H](C2CCCCC2)N(C)C(=O)C2(CCCC2)NC(=O)[C@@H]2CCCN2C(=O)[C@H](CCc2ccc(F)cc2)NC(=O)CN(C)C(=O)[C@H](CC2CCCCC2)N(C)C(=O)CN(C)C(=O)CN(C)C1=O [Compound 618] ([NMeA]I[Sar][Sar][NMeCha][Sar][hPhe(4-F)]P[Ac5c][NMeChg][NMeD]-Piperidide; lactam N-11) | 2.4 nM | 100 to 500 nM
CC[C@H](C)[C@@H]1NC(=O)[C@H](CC(C)C)N(C)C(=O)C[C@@H](C(=O)N2CCCCC2)N(C)C(=O)[C@H](C(C)C)N(C)C(=O)[C@](C)(CC)NC(=O)[C@@H]2CCCN2C(=O)[C@H](CCc2ccc(C(F)(F)F)c(Cl)c2)NC(=O)CN(C)C(=O)[C@H](CC2CCCCC2)N(C)C(=O)CN(C)C(=O)CN(C)C1=O [Compound 620] ([NMeL]I[Sar][Sar][NMeCha][Sar][hPhe(3-Cl-4-CF3)]P[Iva][NMeV][NMeD]-Piperidide; lactam N-11) | 11 nM | 100 to 500 nM
CC[C@H](C)[C@@H]1NC(=O)[C@H](CC(C)C)N(C)C(=O)C[C@@H](C)N(C)C(=O)[C@H](C2CCCCC2)N(C)C(=O)C2(CCCC2)NC(=O)[C@@H]2CCCN2C(=O)[C@H](CCc2ccc(C(F)(F)F)c(Cl)c2)NC(=O)CN(C)C(=O)[C@H](CC2CCCCC2)N(C)C(=O)CN(C)C(=O)CN(C)C1=O [Compound 629] (cyclo([Ac5c][NMeChg][NMedβ3hAla][NMeL]I[Sar][Sar][NMeCha][Sar][hPhe(3-Cl-4-CF3)]P)) | 10 nM | 100 to 500 nM
CC[C@H](C)[C@@H]1NC(=O)[C@H](CC(C)C)N(C)C(=O)C[C@@H](C(=O)N2CCCCC2)N(C)C(=O)[C@H](C2CCCCC2)N(C)C(=O)C2(CCCC2)NC(=O)[C@@H]2CCCN2C(=O)[C@H](CCc2ccc(C(F)(F)F)c(Cl)c2)NC(=O)CN(C)C(=O)[C@H](CCCCC(F)F)N(C)C(=O)CN(C)C(=O)CN(C)C1=O [Compound 631] ([NMeL]I[Sar][Sar][NMeNle(6-CHF2)][Sar][hPhe(3-Cl-4-CF3)]P[Ac5c][NMeChg][NMeD]-Piperidide; lactam N-11) | 1 nM | 100 to 500 nM
C=CC[C@]1(C)NC(=O)[C@@H]2CCCN2C(=O)[C@H](CCc2ccc(C(F)(F)F)c(Cl)c2)NC(=O)CN(C)C(=O)[C@H](CC2CCCCC2)N(C)C(=O)CN(C)C(=O)CN(C)C(=O)[C@H]([C@@H](C)CC)NC(=O)[C@H](CC(C)C)N(C)C(=O)C[C@@H](C)N(C)C(=O)[C@H](C(C)C)N(C)C1=O [Compound 644] (cyclo(I[Sar][Sar][NMeCha][Sar][hPhe(3-Cl-4-CF3)]P[X2][NMeV][NMedβ3hAla][NMeL])) | 17 nM | 100 to 500 nM
CC[C@H](C)[C@@H]1NC(=O)[C@H](CC(F)(F)F)N(C)C(=O)C[C@@H](C(=O)N2CCCC2)N(C)C(=O)[C@H](C2CCCCC2)N(C)C(=O)C2(CCCC2)NC(=O)[C@@H]2CCCN2C(=O)[C@H](CCc2ccc(C(F)(F)F)c(Cl)c2)NC(=O)CN(C)C(=O)[C@H](CC2CCCCC2)N(C)C(=O)CN(C)C(=O)CN(C)C1=O [Compound 647] ([NMeAbu(4,4,4-F3)]I[Sar][Sar][NMeCha][Sar][hPhe(3-Cl-4-CF3)]P[Ac5c][NMeChg][NMeD]-Pyrrolidide; lactam N-11) | 0.58 nM | 20 to 50 nM
CC[C@H](C)[C@@H]1NC(=O)[C@H](CCOC)N(C)C(=O)C[C@@H](C(=O)N2CCCCC2)N(C)C(=O)[C@H](C2CCCCC2)N(C)C(=O)C2(CCCC2)NC(=O)[C@@H]2CCCN2C(=O)[C@H](CCc2ccc(C(F)(F)F)c(Cl)c2)NC(=O)CN(C)C(=O)[C@H](CC2CCCCC2)N(C)C(=O)CN(C)C(=O)CN(C)C1=O [Compound 650] ([NMehSer](Me)I[Sar][Sar][NMeCha][Sar][hPhe(3-Cl-4-CF3)]P[Ac5c][NMeChg][NMeD]-Piperidide; lactam N-11) | 0.6 nM | 50 to 100 nM
CC[C@H](C)[C@@H]1NC(=O)[C@H](CC(C)C)N(C)C(=O)C[C@@H](C(=O)N2CCCCC2)N(C)C(=O)[C@H](C2CCCCC2)N(C)C(=O)C2(CCCC2)NC(=O)[C@@H]2COCCN2C(=O)[C@H](CCc2ccc(C(F)(F)F)c(Cl)c2)NC(=O)CN(C)C(=O)[C@H](CC2CCCCC2)N(C)C(=O)CN(C)C(=O)CN(C)C1=O [Compound 662] ([NMeL]I[Sar][Sar][NMeCha][Sar][hPhe(3-Cl-4-CF3)][Morpholine(3S-CO)][Ac5c][NMeChg][NMeD]-Piperidide; lactam N-11) | 3.2 nM | 50 to 100 nM
CC[C@H](C)[C@@H]1NC(=O)[C@H](CC(F)(F)F)N(C)C(=O)C[C@@H](C(=O)N2C3CCC2COC3)N(C)C(=O)[C@H](C2CCCCC2)N(C)C(=O)C2(CCCC2)NC(=O)[C@@H]2CCCN2C(=O)[C@H](CCc2ccc(C(F)(F)F)c(Cl)c2)NC(=O)CN(C)C(=O)[C@H](Cc2ccc(C)cc2)N(C)C(=O)CN(C)C(=O)CN(C)C1=O [Compound 683] ([NMeAbu(4,4,4-F3)]I[Sar][Sar][NMePhe(4-Me)][Sar][hPhe(3-Cl-4-CF3)]P[Ac5c][NMeChg][NMeD]-{3Oxa8azabicyclo(3.2.1)octane}; lactam N-11) | 0.61 nM | 50 to 100 nM
CC(C)C[C@H]1C(=O)N[C@@H](CC2CC2)C(=O)N(C)CC(=O)N(C)CC(=O)N(C)[C@@H](CC2CCCCC2)C(=O)N(C)CC(=O)N[C@@H](CCc2ccc(C(F)(F)F)c(Cl)c2)C(=O)N2CCC[C@H]2C(=O)NC2(CCCC2)C(=O)N(C)[C@@H](C2CCCCC2)C(=O)N(C)[C@H](C(=O)N2CCCCC2)CC(=O)N1C [Compound 689] ([NMeL][Ala(cPr)][Sar][Sar][NMeCha][Sar][hPhe(3-Cl-4-CF3)]P[Ac5c][NMeChg][NMeD]-Piperidide; lactam N-11) | 2.1 nM | 100 to 500 nM
CC[C@H](C)[C@@H]1NC(=O)[C@H](COC2CCC2)N(C)C(=O)C[C@@H](C(=O)N2CCCCC2)N(C)C(=O)[C@H](C2CCCCC2)N(C)C(=O)C2(CCCC2)NC(=O)[C@@H]2CCCN2C(=O)[C@H](CCc2ccc(C(F)(F)F)c(Cl)c2)NC(=O)CN(C)C(=O)[C@H](CC2CCCCC2)N(C)C(=O)CN(C)C(=O)CN(C)C1=O [Compound 699] ([NMeS](Cyclobutyl)I[Sar][Sar][NMeCha][Sar][hPhe(3-Cl-4-CF3)]P[Ac5c][NMeChg][NMeD]-Piperidide; lactam N-11) | 0.83 nM | 50 to 100 nM
CC[C@H](C)[C@@H]1NC(=O)[C@H](C2CCC2)N(C)C(=O)C[C@@H](C(=O)N2C3CCC2COC3)N(C)C(=O)[C@H](C2CCCCC2)N(C)C(=O)C2(CCCC2)NC(=O)[C@@H]2CCCN2C(=O)[C@H](CCc2ccc(C(F)(F)F)c(Cl)c2)NC(=O)CN(C)C(=O)[C@H](CC2CCCCC2)N(C)C(=O)CN(C)C(=O)CN(C)C1=O [Compound 701] ([NMeGly(cBu)]I[Sar][Sar][NMeCha][Sar][hPhe(3-Cl-4-CF3)]P[Ac5c][NMeChg][NMeD]-{3Oxa8azabicyclo(3.2.1)octane}; lactam N-11) | 0.69 nM | 50 to 100 nM
CC[C@H](C)[C@@H]1NC(=O)[C@H](CC(C)C)N(C)C(=O)C[C@@H](C)NC(=O)[C@H]([C@@H](C)CC)N(C)C(=O)C2(CCCC2)NC(=O)[C@@H]2CCCN2C(=O)[C@H](CCc2ccc(C(F)(F)F)c(Cl)c2)NC(=O)CN(C)C(=O)[C@H](CC2CCCCC2)N(C)C(=O)CN(C)C(=O)CN(C)C1=O [Compound 708] (cyclo([Ac5c][NMeI][d(β3hA)][NMeL]I[Sar][Sar][NMeCha][Sar][hPhe(3-Cl-4-CF3)]P)) | 11 nM | 50 to 100 nM
